This passage reports IC50 results from PubChem BioAssay AID624167 (Sanford-Burnham Center for Chemical Genomics, 2012).

Holding throughout (experiment): inhibition of PEG-3 promoter-driven reporter – cell-based, HeLa, luciferase, CREF/GAPDH counter-screen panel, dose response (AID 624167)
The target of experiment [1] is PEG-3 (UniProt Q6IN02). To be noted: HeLa PEG-Prom luciferase reporter, overnight, CREF/GAPDH counter-screens, mean of runs.
In experiment [2] the test system is PEG-3. To be noted: HeLa PEG-Prom luciferase reporter, overnight, CREF/GAPDH counter-screens.
In a further experiment the test system is Rat fibroblasts (CREF). To be noted: CREF/GAPDH counter-screens.
Setting [3] is: run 1, dose range 1, individual replicate IC50 per panel.
Where [4] appears, read: run 2, dose range 1, individual replicate IC50 per panel.

Each structure is given as a SMILES string. pIC50: −log10 of the molar value. Active and inactive are the calls of the source.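 The calls were made as follows: active = mean IC50 for reducing PEG3 promoter reporter signal at or below a set limit, with IC50 above the limit in both counter screens; inactive = the rest, including counter screen hits.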

Chain of PEG-3 (UniProt Q6IN02) (Q6IN02 whole entry, looked up): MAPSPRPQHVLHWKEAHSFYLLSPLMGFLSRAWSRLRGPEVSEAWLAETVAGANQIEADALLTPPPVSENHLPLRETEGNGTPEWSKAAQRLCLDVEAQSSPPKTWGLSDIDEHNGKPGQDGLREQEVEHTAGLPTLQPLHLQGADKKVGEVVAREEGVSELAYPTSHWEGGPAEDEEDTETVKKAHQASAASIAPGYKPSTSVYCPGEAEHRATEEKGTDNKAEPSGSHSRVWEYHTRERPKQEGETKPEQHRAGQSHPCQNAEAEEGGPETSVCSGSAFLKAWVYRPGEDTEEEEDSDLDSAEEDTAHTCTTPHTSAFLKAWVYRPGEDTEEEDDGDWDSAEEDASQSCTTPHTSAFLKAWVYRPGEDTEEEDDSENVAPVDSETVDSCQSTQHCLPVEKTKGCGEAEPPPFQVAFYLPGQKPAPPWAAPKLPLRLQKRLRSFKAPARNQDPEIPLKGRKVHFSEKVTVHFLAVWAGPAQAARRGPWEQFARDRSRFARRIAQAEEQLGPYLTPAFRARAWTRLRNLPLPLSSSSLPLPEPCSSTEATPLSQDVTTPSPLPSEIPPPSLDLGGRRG

On to `Cc1ccc(C(=O)Nc2cc3ccccc3oc2=O)cc1`, for which the pIC50 was 6.18 on PEG-3 [1]; 6.49 in the experiment on PEG-3 [2] (setting [3]); 6.00 in the experiment on PEG-3 [2] (setting [4]); 5.78 in the experiment on Rat fibroblasts (CREF) (mean of runs); 6.39 with Rat fibroblasts (CREF) (setting [3]); 5.54 in the experiment with Rat fibroblasts (CREF) (setting [4]).

Turning to `Oc1c(I)cc(Cl)c2cccnc12`, the pIC50 at PEG-3 [1] is 4.80; in the experiment with PEG-3 [2] (setting [3]), 5.10; with PEG-3 [2] (setting [4]), 4.63; in the experiment on Rat fibroblasts (CREF) (mean of runs) it was 4.75; in the experiment with Rat fibroblasts (CREF) (setting [3]), 4.80; in the experiment with Rat fibroblasts (CREF) (setting [4]), 4.70.

Turning to `CCOc1ccc(NC(=O)c2ccccn2)cc1`, the pIC50 at PEG-3 [1] is 5.46; in the experiment on PEG-3 [2] (setting [3]) it was 5.54; in the experiment with PEG-3 [2] (setting [4]) it was 5.39; with Rat fibroblasts (CREF) (mean of runs), 5.89; in the experiment with Rat fibroblasts (CREF) (setting [3]), 6.04; in the experiment with Rat fibroblasts (CREF) (setting [4]), 5.78.

`O=C(Nc1ccc([N+](=O)[O-])cc1)C(=O)Nc1cccc(C(=O)O)c1`: the pIC50 on PEG-3 [1] is 5.91; in the experiment with PEG-3 [2] (setting [3]) it was 5.98; in the experiment with PEG-3 [2] (setting [4]) it was 5.85; with Rat fibroblasts (CREF) (mean of runs) it was 5.57; with Rat fibroblasts (CREF) (setting [3]), 5.63; in the experiment on Rat fibroblasts (CREF) (setting [4]) it was 5.52.

Take `Cc1ccc(C(=O)O/N=C(\N)c2ccccn2)cc1`: the pIC50 was 5.18 on PEG-3 [1]; 4.99 in the experiment with PEG-3 [2] (setting [3]); 5.53 with PEG-3 [2] (setting [4]); 5.80 in the experiment on Rat fibroblasts (CREF) (mean of runs); 5.79 with Rat fibroblasts (CREF) (setting [3]); 5.82 in the experiment on Rat fibroblasts (CREF) (setting [4]).

With `Cc1ccc(-c2nc(-c3ccccn3)no2)cc1`, the pIC50 on PEG-3 [1] is 6.24; in the experiment on PEG-3 [2] (setting [3]), 6.32; with PEG-3 [2] (setting [4]), 6.18; in the experiment on Rat fibroblasts (CREF) (mean of runs), 6.32; in the experiment with Rat fibroblasts (CREF) (setting [3]), 6.54; with Rat fibroblasts (CREF) (setting [4]) it was 6.17.

For the compound `CC(=O)CSc1ccc(-c2nc3cc(C)c(C)cc3[nH]2)cn1`, the pIC50 on PEG-3 [1] was 5.69; in the experiment with PEG-3 [2] (setting [3]), 5.65; in the experiment on PEG-3 [2] (setting [4]), 5.74; in the experiment with Rat fibroblasts (CREF) (mean of runs), 5.68; in the experiment on Rat fibroblasts (CREF) (setting [3]), 5.75; in the experiment on Rat fibroblasts (CREF) (setting [4]), 5.63.

Take `CC1CCN(c2ccc(-c3cccs3)nn2)CC1`: the pIC50 was 5.74 at PEG-3 [1]; 5.67 with PEG-3 [2] (setting [3]); 5.83 in the experiment on PEG-3 [2] (setting [4]); 6.47 with Rat fibroblasts (CREF) (mean of runs); 6.50 with Rat fibroblasts (CREF) (setting [3]); 6.44 in the experiment on Rat fibroblasts (CREF) (setting [4]).

With `Cc1ccc2nc(-c3ccc4c(c3)OCCO4)cn2c1`, the pIC50 is 6.20 on PEG-3 [1]; 6.08 in the experiment with PEG-3 [2] (setting [3]); 6.39 in the experiment with PEG-3 [2] (setting [4]); 6.14 with Rat fibroblasts (CREF) (mean of runs); 6.16 in the experiment on Rat fibroblasts (CREF) (setting [3]); 6.11 in the experiment with Rat fibroblasts (CREF) (setting [4]).

Regarding `CN1CCN(c2ccc(-c3ccc4ccccc4n3)cc2)CC1`, the IC50 result at PEG-3 [1] was “inactive”. The pIC50 in the experiment on PEG-3 [2] (setting [3]) was 5.11; with PEG-3 [2] (setting [4]), below 4.00; in the experiment with Rat fibroblasts (CREF) (mean of runs), 5.63; in the experiment on Rat fibroblasts (CREF) (setting [3]), 5.53; in the experiment with Rat fibroblasts (CREF) (setting [4]), 5.75.

`COc1ccc(CCN2C(=O)C=CC2=O)cc1OC`: the pIC50 on PEG-3 [1] was 5.06; in the experiment on PEG-3 [2] (setting [3]), 5.00; in the experiment with PEG-3 [2] (setting [4]) it was 5.13; with Rat fibroblasts (CREF) (mean of runs) it was 5.10; with Rat fibroblasts (CREF) (setting [3]), 5.19; in the experiment with Rat fibroblasts (CREF) (setting [4]) it was 5.02.

As for `O=C(Nc1cc(S(=O)(=O)N2CCOCC2)ccc1Cl)c1cc([N+](=O)[O-])ccc1Cl`, the pIC50 on PEG-3 [1] is 5.07; with PEG-3 [2] (setting [3]), 4.83; in the experiment with PEG-3 [2] (setting [4]) it was 5.67; in the experiment on Rat fibroblasts (CREF) (mean of runs), 4.72; with Rat fibroblasts (CREF) (setting [3]) it was 4.50; in the experiment on Rat fibroblasts (CREF) (setting [4]), 5.21.

`CCCOc1ccc2cc(-c3ccccn3)c(=O)oc2c1`: the pIC50 was 5.45 on PEG-3 [1]; 5.69 with PEG-3 [2] (setting [3]); 5.30 in the experiment with PEG-3 [2] (setting [4]); 5.88 in the experiment on Rat fibroblasts (CREF) (mean of runs); 5.96 with Rat fibroblasts (CREF) (setting [3]); 5.80 in the experiment on Rat fibroblasts (CREF) (setting [4]).

For the compound `O=C(CN1C(=O)c2ccccc2S1(=O)=O)c1ccc2c(c1)OCCCO2`, the pIC50 at PEG-3 [1] was 6.23; with PEG-3 [2] (setting [3]), 6.11; with PEG-3 [2] (setting [4]), 6.39; in the experiment on Rat fibroblasts (CREF) (mean of runs), 5.89; in the experiment with Rat fibroblasts (CREF) (setting [3]), 5.97; in the experiment with Rat fibroblasts (CREF) (setting [4]) it was 5.83.

`Cc1ccc2nc(NC(=O)c3ccccn3)sc2c1`: the pIC50 on PEG-3 [1] was 5.91; with PEG-3 [2] (setting [3]) it was 5.89; with PEG-3 [2] (setting [4]), 5.93; in the experiment with Rat fibroblasts (CREF) (mean of runs), 6.08; with Rat fibroblasts (CREF) (setting [3]) it was 6.25; in the experiment on Rat fibroblasts (CREF) (setting [4]), 5.96.

Regarding `Cc1ccc(-c2nnc(SCC(=O)Nc3ccccc3F)o2)cc1`, the negative-log IC50 (pIC50) on PEG-3 [1] is 5.81; in the experiment on PEG-3 [2] (setting [3]), 5.84; in the experiment with PEG-3 [2] (setting [4]), 5.79; in the experiment on Rat fibroblasts (CREF) (mean of runs), 5.49; in the experiment with Rat fibroblasts (CREF) (setting [3]), 5.46; with Rat fibroblasts (CREF) (setting [4]), 5.51.

Take `COC(CNC(=O)c1ccc2c3c(onc13)-c1ccccc1C2=O)OC`: the pIC50 was 5.13 on PEG-3 [1]; 5.03 with PEG-3 [2] (setting [3]); 5.25 in the experiment on PEG-3 [2] (setting [4]); 4.74 with Rat fibroblasts (CREF) (mean of runs); 4.76 in the experiment with Rat fibroblasts (CREF) (setting [3]); 4.72 in the experiment with Rat fibroblasts (CREF) (setting [4]).
